{"source": "patent US12077503B2", "about": "“Substituted cyclic amides and their use as herbicides” (FMC CORPORATION, priority 2015, dated 2024)", "assay_type_in_all_cases": "in vivo", "key": {"[1]": {"tested_on": "Kochia (Kochia scoparia)", "experiment": "Test A preemergence", "details": "Bassia scoparia, pre-emergence, 240 h", "procedure,_shortened": "(§1)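 Greenhouse, ~10 d after spray; visual injury vs untreated controls, 0 = no effect, 100 = complete control. Preemergence: directed soil spray over planted seeds. Postemergence: plants 2–10 cm, 1–2 leaf stage. Loam/sand blend. Compound in non-phytotoxic solvent with surfactant.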"}, "[2]": {"tested_on": "barnyardgrass (Echinochloa crus-galli)", "experiment": "Test A preemergence", "details": "Echinochloa crus-galli, pre-emergence, 240 h", "procedure,_shortened": "as §1"}, "[3]": {"tested_on": "giant foxtail (Setaria faberii)", "experiment": "Test A preemergence", "details": "Setaria faberi, pre-emergence, 240 h", "procedure,_shortened": "as §1"}, "[4]": {"tested_on": "pigweed (Amaranthus retroflexus)", "experiment": "Test A preemergence", "details": "Amaranthus retroflexus, pre-emergence, 240 h"}, "[5]": {"tested_on": "ragweed (common ragweed, Ambrosia elatior)", "experiment": "Test A preemergence", "details": "Ambrosia artemisiifolia, pre-emergence, 240 h, 500 g ai/ha, preemergence; visual injury rating about 10 d after treatment, 0 to 100 scale (0 no effect, 100 complete control); read-out: Ragweed plant response rating", "procedure,_shortened": "as §1"}, "[6]": {"tested_on": "ryegrass, Italian (Italian ryegrass, Lolium multiflorum)", "experiment": "Test A preemergence", "details": "Lolium multiflorum, pre-emergence, 240 h", "procedure,_shortened": "as §1"}, "[7]": {"tested_on": "Galium (catchweed bedstraw, Galium aparine)", "experiment": "Test A postemergence", "details": "Galium, post-emergence, 240 h, postemergence, approx. 10 d", "procedure,_shortened": "as §1"}, "[8]": {"tested_on": "Kochia (Kochia scoparia)", "experiment": "Test A postemergence", "details": "Bassia scoparia, post-emergence, 240 h, postemergence, approx. 10 d", "procedure,_shortened": "as §1"}, "[9]": {"tested_on": "barnyardgrass (Echinochloa crus-galli)", "experiment": "Test A postemergence", "details": "Echinochloa crus-galli, post-emergence, 240 h, read-out: Plant response rating, Barnyardgrass", "procedure,_shortened": "as §1"}, "[10]": {"tested_on": "corn (Zea mays)", "experiment": "Test A postemergence", "details": "Zea mays, post-emergence, 240 h", "procedure,_shortened": "as §1"}, "[11]": {"tested_on": "giant foxtail (Setaria faberii)", "experiment": "Test A postemergence", "details": "Setaria faberi, post-emergence, 240 h, postemergence, approx. 10 d", "procedure,_shortened": "as §1"}, "[12]": {"tested_on": "pigweed (Amaranthus retroflexus)", "experiment": "Test A postemergence", "details": "Amaranthus retroflexus, post-emergence, 240 h, 125 g ai/ha, postemergence; visual injury on 0 to 100 scale (0 no effect, 100 complete control), approx. 10 d; read-out: Pigweed plant response rating", "procedure,_shortened": "as §1"}, "[13]": {"tested_on": "ragweed (common ragweed, Ambrosia elatior)", "experiment": "Test A postemergence", "details": "Ambrosia artemisiifolia, post-emergence, 240 h, 125 g ai/ha, postemergence; visual injury on 0 to 100 scale (0 no effect, 100 complete control), approx. 10 d; read-out: Ragweed plant response rating", "procedure,_shortened": "as §1"}, "[14]": {"tested_on": "ryegrass, Italian (Italian ryegrass, Lolium multiflorum)", "experiment": "Test A postemergence", "details": "Lolium multiflorum, post-emergence, 240 h, 125 g ai/ha, postemergence; visual injury on 0 to 100 scale (0 no effect, 100 complete control), approx. 10 d; read-out: Ryegrass, Italian plant response rating", "procedure,_shortened": "as §1"}, "[15]": {"tested_on": "wheat (Triticum aestivum)", "experiment": "Test A postemergence", "details": "Triticum aestivum, post-emergence, 240 h, 125 g ai/ha, postemergence; visual injury on 0 to 100 scale (0 no effect, 100 complete control), approx. 10 d; read-out: Wheat plant response rating", "procedure,_shortened": "as §1"}, "[16]": {"details": "125 g ai/ha, Postemergence, visual injury after approximately 10 d, 0 to 100 scale where 0 is no effect and 100 is complete control"}, "[17]": {"details": "500 g ai/ha, postemergence, visual injury, 0 to 100 scale (0 no effect, 100 complete control), approx. 10 d"}}, "data": [{"smiles": "Cc1cc([C@H]2CNC(=O)[C@@H]2C(=O)Nc2cccc(F)c2F)ccc1C(F)(F)F", "note": "[Compound 1040]", "values": [{"measurement": "pest or weed control at 125 g/ha", "setting": "[1]; 125 g ai/ha, Preemergence, visual injury rating after approximately 10 d, read-out: Kochia plant response rating (0 to 100 scale, 0 is no effect, 100 is complete control)", "value": 50, "unit": "%"}, {"measurement": "pest or weed control at 500 g/ha", "setting": "[1]; 500 g ai/ha, preemergence, visual injury rating about 10 d after treatment, 0 to 100 scale (0 no effect, 100 complete control), read-out: Kochia plant response rating", "value": 80, "unit": "%"}, {"measurement": "pest or weed control at 125 g/ha", "setting": "[2]; 125 g ai/ha, Preemergence, visual injury rating after approximately 10 d, read-out: Barnyardgrass plant response rating (0 to 100 scale, 0 is no effect, 100 is complete control)", "value": 90, "unit": "%"}, {"measurement": "pest or weed control at 500 g/ha", "setting": "[2]; 500 g ai/ha, preemergence, visual injury rating about 10 d after treatment, 0 to 100 scale (0 no effect, 100 complete control), read-out: Barnyardgrass plant response rating", "value": 90, "unit": "%"}, {"measurement": "pest or weed control at 125 g/ha", "setting": "[3]; 125 g ai/ha, Preemergence, visual injury rating after approximately 10 d, read-out: Foxtail, Giant plant response rating (0 to 100 scale, 0 is no effect, 100 is complete control)", "value": 90, "unit": "%"}, {"measurement": "pest or weed control at 500 g/ha", "setting": "[3]; 500 g ai/ha, preemergence, visual injury rating about 10 d after treatment, 0 to 100 scale (0 no effect, 100 complete control), read-out: Foxtail, Giant plant response rating", "value": 90, "unit": "%"}, {"measurement": "pest or weed control at 125 g/ha", "setting": "[4]; 125 g ai/ha, Preemergence, visual injury rating after approximately 10 d, read-out: Pigweed plant response rating (0 to 100 scale, 0 is no effect, 100 is complete control)", "value": 30, "unit": "%"}, {"measurement": "pest or weed control at 500 g/ha", "setting": "[4]; 500 g ai/ha, preemergence, visual injury rating about 10 d after treatment, 0 to 100 scale (0 no effect, 100 complete control), read-out: Pigweed plant response rating", "value": 40, "unit": "%"}, {"measurement": "pest or weed control at 500 g/ha", "setting": "[5]", "value": 80, "unit": "%"}, {"measurement": "pest or weed control at 125 g/ha", "setting": "[6]; 125 g ai/ha, Preemergence, visual injury rating after approximately 10 d, read-out: Ryegrass, Italian plant response rating (0 to 100 scale, 0 is no effect, 100 is complete control)", "value": 50, "unit": "%"}, {"measurement": "pest or weed control at 500 g/ha", "setting": "[6]; 500 g ai/ha, preemergence, visual injury rating about 10 d after treatment, 0 to 100 scale (0 no effect, 100 complete control), read-out: Ryegrass, Italian plant response rating", "value": 50, "unit": "%"}, {"measurement": "pest or weed control at 125 g/ha", "setting": "[7]; 125 g ai/ha, visual injury on 0 to 100 scale (0 no effect, 100 complete control), read-out: Galium plant response rating", "value": 50, "unit": "%"}, {"measurement": "pest or weed control at 500 g/ha", "setting": "[7]; 500 g ai/ha, visual injury, 0 to 100 scale (0 no effect, 100 complete control), read-out: Plant response rating, Galium", "value": 70, "unit": "%"}, {"measurement": "pest or weed control at 125 g/ha", "setting": "[8]; 125 g ai/ha, visual injury on 0 to 100 scale (0 no effect, 100 complete control), read-out: Kochia plant response rating", "value": 60, "unit": "%"}, {"measurement": "pest or weed control at 500 g/ha", "setting": "[8]; 500 g ai/ha, visual injury, 0 to 100 scale (0 no effect, 100 complete control), read-out: Plant response rating, Kochia", "value": 70, "unit": "%"}, {"measurement": "pest or weed control at 125 g/ha", "setting": "[9]; [16]", "value": 80, "unit": "%"}, {"measurement": "pest or weed control at 500 g/ha", "setting": "[9]; [17]", "value": 90, "unit": "%"}, {"measurement": "Corn plant response rating (crop injury, 0 = no effect, 100 = complete kill) at 125 g/ha", "setting": "[10]; [16]", "value": 60, "unit": "%"}, {"measurement": "Corn plant response rating (crop injury, 0 = no effect, 100 = complete kill) at 500 g/ha", "setting": "[10]; [17]", "value": 80, "unit": "%"}, {"measurement": "pest or weed control at 125 g/ha", "setting": "[11]; 125 g ai/ha, visual injury on 0 to 100 scale (0 no effect, 100 complete control), read-out: Foxtail, Giant plant response rating", "value": 80, "unit": "%"}, {"measurement": "pest or weed control at 500 g/ha", "setting": "[11]; 500 g ai/ha, visual injury, 0 to 100 scale (0 no effect, 100 complete control), read-out: Plant response rating, Foxtail, Giant", "value": 90, "unit": "%"}, {"measurement": "pest or weed control at 125 g/ha", "setting": "[12]", "value": 40, "unit": "%"}, {"measurement": "pest or weed control at 125 g/ha", "setting": "[13]", "value": 0, "unit": "%"}, {"measurement": "pest or weed control at 125 g/ha", "setting": "[14]", "value": 30, "unit": "%"}, {"measurement": "plant injury at 125 g/ha", "setting": "[15]", "value": 20, "unit": "%"}]}]}
